Like-named read-outs stand apart in the source and are kept apart here.
Target: T1, mouse TMEM16A mutant I640A (Mus musculus, UniProt Q8BHY3, I640A)
T1 construct: expressed in transfected cells; host or cells: HEK293T
T1 sequence (Q8BHY3 1-960 I640A): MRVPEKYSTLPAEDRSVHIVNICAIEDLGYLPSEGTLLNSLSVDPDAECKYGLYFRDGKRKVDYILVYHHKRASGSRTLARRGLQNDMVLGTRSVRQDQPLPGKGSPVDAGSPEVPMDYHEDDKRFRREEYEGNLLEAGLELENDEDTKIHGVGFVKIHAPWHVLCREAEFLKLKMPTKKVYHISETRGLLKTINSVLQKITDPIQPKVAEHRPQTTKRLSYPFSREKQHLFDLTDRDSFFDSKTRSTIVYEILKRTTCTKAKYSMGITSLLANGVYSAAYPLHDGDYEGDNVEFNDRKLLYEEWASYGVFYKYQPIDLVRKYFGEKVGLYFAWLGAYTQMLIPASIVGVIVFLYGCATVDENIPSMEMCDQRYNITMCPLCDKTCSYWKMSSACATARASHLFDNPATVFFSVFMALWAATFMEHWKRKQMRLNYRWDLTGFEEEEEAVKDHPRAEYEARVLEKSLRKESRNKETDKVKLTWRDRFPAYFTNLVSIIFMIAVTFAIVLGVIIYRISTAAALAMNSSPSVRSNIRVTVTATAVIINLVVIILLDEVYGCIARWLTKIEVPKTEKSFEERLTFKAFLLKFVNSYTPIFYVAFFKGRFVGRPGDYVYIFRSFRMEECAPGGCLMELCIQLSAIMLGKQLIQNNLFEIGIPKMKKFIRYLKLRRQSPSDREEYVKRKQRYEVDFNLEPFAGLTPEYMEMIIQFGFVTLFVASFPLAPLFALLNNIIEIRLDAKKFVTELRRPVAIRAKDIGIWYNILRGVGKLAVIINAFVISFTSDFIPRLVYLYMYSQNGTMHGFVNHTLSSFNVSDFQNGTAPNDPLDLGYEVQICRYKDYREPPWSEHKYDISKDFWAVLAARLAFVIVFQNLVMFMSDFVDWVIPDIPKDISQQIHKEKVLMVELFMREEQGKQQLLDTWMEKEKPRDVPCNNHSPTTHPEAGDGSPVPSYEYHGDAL
Experiment: Inside-out patch recording of 1PBC block, mutant I640A
Format: cell-based
Details: for IC50: 15 µM Ca2+
Experimental: HEK293T cells (ATCC CRL-1573) were maintained in Dulbecco’s modified Eagle’s medium (DMEM; Sigma-Aldrich) supplemented with 10 U ml^−1 penicillin, 0.1 mg ml^−1 streptomycin (Sigma-Aldrich), 2 mM L-glutamine (Sigma-Aldrich), and 10% FBS (Sigma-Aldrich) in a humidified atmosphere containing 5% CO2 at 37 °C. HEK293S GnTI^− cells (ATCC CRL-3022) were maintained in HyClone HyCell TransFx-H medium (GE Healthcare) supplemented with 10 U ml^−1 penicillin, 0.1 mg ml^−1 streptomycin, 4 mM L-glutamine, 0.15% poloxamer 188 (Sigma-Aldrich), and 1% FBS in an atmosphere containing 5% CO2 at 185 rpm at 37 °C. The ac splice variant of mouse TMEM16A (UniProt ID: Q8BHY3), mouse TMEM16B (UniProt ID: Q8CFW1), or mouse TMEM16F (UniProt ID: Q6P9J9) bearing a 3C cleavage site, a Venus YFP, a Myc tag, and a Streptavidin-binding peptide (SBP) downstream of the open reading frame in a modified pcDNA3.1 vector (Invitrogen) were used as described previously[21],[31]. Mutations were introduced using a modified QuikChange method[58] and were verified by sequencing.
HEK293T cells were transfected with 3–4 μg DNA per 6 cm Petri dish using the calcium phosphate co-precipitation method and were used within 24–96 h after transfection. Recordings were performed on inside-out patches excised from HEK293T cells expressing the construct of interest. Patch pipettes were pulled from borosilicate glass capillaries (O.D. 1.5 mm, I.D. 0.86 mm, Sutter Instrument) and were fire-polished with a microforge (Narishige) before use. Pipette resistance was typically 3–8 MΩ when filled with the recording solutions detailed below. Seal resistance was typically 4 GΩ or higher. Voltage-clamp recordings were made using Axopatch 200B, Digidata 1550, and Clampex 10.7 (Molecular Devices). Analog signals were filtered with the in-built 4-pole Bessel filter at 10 kHz and were digitized at 20 kHz. Solution exchange was achieved using a gravity-fed system through a theta glass pipette mounted on an ultra-fast piezo-driven stepper (Siskiyou). […] All recordings were performed at 20 °C.
A symmetrical ionic condition was used throughout. Stock solution with Ca^2+-EGTA contained 150 mM NaCl, 5.99 mM Ca(OH)2, 5 mM EGTA, and 10 mM HEPES at pH 7.40. Stock solution with EGTA contained 150 mM NaCl, 5 mM EGTA, and 10 mM HEPES at pH 7.40. Free Ca^2+ concentrations were adjusted by mixing the stock solutions at the required ratios calculated using the WEBMAXC program (http://web.stanford.edu/~cpatton/webmaxcS.htm). Patch pipettes were filled with the stock solution with Ca^2+-EGTA, which has a free Ca^2+ concentration of 1 mM. 1PBC (ChemBridge) stock was reconstituted in anhydrous DMSO (Sigma-Aldrich) at 100 mM and stored at −20 °C. Working solutions with 1PBC were prepared by serial dilution. Unless otherwise stated, experiments were performed at a saturating Ca^2+ concentration as shown in Supplementary Table 1 and the primary data were corrected for current rundown as described previously[21],[25].
Concentration-response relations, obtained from the ratio of the I-V plots before and after the application of the blocker, were fitted to the Hill equation,1 I/Imax=1/1+IC50/[blocker]^h where I/Imax is the normalized current responses, IC50 defines the concentration at which inhibition is at its half-maximum, and h is the Hill coefficient.

N#Cc1c(C(F)(F)F)cc(O)n2c1nc1ccccc12 [1PBC]
IC50 (0 mV): 31.5 µM
remaining activity at 3 µM (0 mV, 1PBC conc 3, read-out: relative current in 1PBC (avr)): 90.3%
remaining activity at 10 µM (0 mV, 1PBC conc 10, read-out: relative current in 1PBC (avr)): 75.5%
remaining activity at 30 µM (0 mV, 1PBC conc 30, read-out: relative current in 1PBC (avr)): 52.3%
remaining activity at 100 µM (0 mV, 1PBC conc 100, read-out: relative current in 1PBC (avr)): 23.3%
remaining activity at 3 µM (3 µM 1PBC, +80 mV, saturating Ca2+ (15 µM), read-out: I/Imax): 89.4%
remaining activity at 3 µM (3 µM 1PBC, -80 mV, saturating Ca2+ (15 µM), read-out: I/Imax): 92.4%
remaining activity at 10 µM (10 µM 1PBC, +80 mV, saturating Ca2+ (15 µM), read-out: I/Imax): 67.9%
remaining activity at 10 µM (10 µM 1PBC, -80 mV, saturating Ca2+ (15 µM), read-out: I/Imax): 84.6%
remaining activity at 30 µM (30 µM 1PBC, +80 mV, saturating Ca2+ (15 µM), read-out: I/Imax): 43%
remaining activity at 30 µM (30 µM 1PBC, -80 mV, saturating Ca2+ (15 µM), read-out: I/Imax): 64.1%
remaining activity at 100 µM (100 µM 1PBC, +80 mV, saturating Ca2+ (15 µM), read-out: I/Imax): 17.7%
remaining activity at 100 µM (100 µM 1PBC, -80 mV, saturating Ca2+ (15 µM), read-out: I/Imax): 34.6%
normalised current (avr) (1PBC 3, V 0 mV): -0.001271
normalised current (avr) (1PBC 3, V 40 mV): 0.2411
normalised current (avr) (1PBC 3, V 60 mV): 0.367
normalised current (avr) (1PBC 3, V 80 mV): 0.5025
normalised current (avr) (1PBC 3, V 100 mV): 0.651
normalised current (avr) (1PBC 3, V 120 mV): 0.7973
normalised current (avr) (1PBC 3, V 140 mV): 0.965
normalised current (avr) (1PBC 3, V -20 mV): -0.1226
normalised current (avr) (1PBC 3, V -40 mV): -0.2495
normalised current (avr) (1PBC 3, V -60 mV): -0.3836
normalised current (avr) (1PBC 3, V -80 mV): -0.5286
normalised current (avr) (1PBC 3, V -100 mV): -0.6862
normalised current (avr) (1PBC 3, V -120 mV): -0.8514
normalised current (avr) (1PBC 3, V -140 mV): -1.031
normalised current (avr) (1PBC 10, V 0 mV): -0.001063
normalised current (avr) (1PBC 10, V 40 mV): 0.1907
normalised current (avr) (1PBC 10, V 60 mV): 0.2862
normalised current (avr) (1PBC 10, V 80 mV): 0.3819
normalised current (avr) (1PBC 10, V 100 mV): 0.495
normalised current (avr) (1PBC 10, V 120 mV): 0.6083
normalised current (avr) (1PBC 10, V 140 mV): 0.7528
normalised current (avr) (1PBC 10, V -20 mV): -0.1054
normalised current (avr) (1PBC 10, V -40 mV): -0.2204
normalised current (avr) (1PBC 10, V -60 mV): -0.3486
normalised current (avr) (1PBC 10, V -80 mV): -0.4836
normalised current (avr) (1PBC 10, V -100 mV): -0.6367
normalised current (avr) (1PBC 10, V -120 mV): -0.7969
normalised current (avr) (1PBC 10, V -140 mV): -0.9705
normalised current (avr) (1PBC 30, V 0 mV): -0.0007361
normalised current (avr) (1PBC 30, V 40 mV): 0.1262
normalised current (avr) (1PBC 30, V 60 mV): 0.1828
normalised current (avr) (1PBC 30, V 80 mV): 0.2416
normalised current (avr) (1PBC 30, V 100 mV): 0.3073
normalised current (avr) (1PBC 30, V 120 mV): 0.3826
normalised current (avr) (1PBC 30, V 140 mV): 0.476
normalised current (avr) (1PBC 30, V -20 mV): -0.07452
normalised current (avr) (1PBC 30, V -40 mV): -0.1601
normalised current (avr) (1PBC 30, V -60 mV): -0.2555
normalised current (avr) (1PBC 30, V -80 mV): -0.3668
normalised current (avr) (1PBC 30, V -100 mV): -0.4877
normalised current (avr) (1PBC 30, V -120 mV): -0.6228
normalised current (avr) (1PBC 30, V -140 mV): -0.7629
normalised current (avr) (1PBC 100, V 0 mV): -0.0003287
normalised current (avr) (1PBC 100, V 60 mV): 0.07288
normalised current (avr) (1PBC 100, V 80 mV): 0.09923
normalised current (avr) (1PBC 100, V 100 mV): 0.1285
normalised current (avr) (1PBC 100, V 120 mV): 0.1506
normalised current (avr) (1PBC 100, V 140 mV): 0.1846
normalised current (avr) (1PBC 100, V -20 mV): -0.0346
normalised current (avr) (1PBC 100, V -40 mV): -0.07836
normalised current (avr) (1PBC 100, V -60 mV): -0.1311
normalised current (avr) (1PBC 100, V -80 mV): -0.1979
normalised current (avr) (1PBC 100, V -100 mV): -0.2777
normalised current (avr) (1PBC 100, V -120 mV): -0.3667
normalised current (avr) (1PBC 100, V -140 mV): -0.4836
IC50 (20 mV): 27.5 µM
remaining activity at 3 µM (20 mV, 1PBC conc 3, read-out: relative current in 1PBC (avr)): 89.4%
remaining activity at 10 µM (20 mV, 1PBC conc 10, read-out: relative current in 1PBC (avr)): 72.5%
remaining activity at 30 µM (20 mV, 1PBC conc 30, read-out: relative current in 1PBC (avr)): 49.1%
remaining activity at 100 µM (20 mV, 1PBC conc 100, read-out: relative current in 1PBC (avr)): 20.9%
IC50 (40 mV): 24.7 µM
remaining activity at 3 µM (40 mV, 1PBC conc 3, read-out: relative current in 1PBC (avr)): 89%
remaining activity at 10 µM (40 mV, 1PBC conc 10, read-out: relative current in 1PBC (avr)): 70.4%
remaining activity at 30 µM (40 mV, 1PBC conc 30, read-out: relative current in 1PBC (avr)): 46.6%

— article PMC9120017, “Inhibition mechanism of the chloride channel TMEM16A by the pore blocker 1PBC” (Nature Communications, 2022)
